# Key:
# Test in all cases: relative viability (nuclei count vs DMSO), 5 days (fraction); higher = more cells survive
# [1] = test system: H3255
# Outline: (§1)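 Relative viability was taken as the ratio of nuclei in treated wells to nuclei in vehicle wells. Lung cancer cell lines in 1536-well plates received compounds by pin tool one day after seeding, either one drug alone or a fixed anchor-drug dose plus five library-drug doses (not always all listed) in √10 steps. Nuclei were counted on 4× images after 5 days of treatment, and values are medians of duplicate plates.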
# [2] = test system: 201T
# Outline: as §1
# [3] = test system: NCI-H1915
# Outline: as §1
# [4] = test system: HCC-78
# Outline: as §1
# [5] = test system: NCI-H647
# Outline: as §1
# [6] = test system: NCI-H2126
# Outline: as §1
# [7] = test system: LC-2-ad
# Outline: as §1
# [8] = test system: COR-L 105
# Outline: as §1
# [9] = test system: NCI-H2087
# Outline: as §1
# [10] = test system: HCC-827
# Outline: as §1
# [11] = test system: NCI-H23
# Outline: as §1
# [12] = test system: RERF-LC-KJ
# Outline: as §1
# [13] = test system: NCI-H2405
# Outline: as §1
# [14] = test system: NCI-H2347
# Outline: as §1
# [15] = test system: ChaGo-K-1
# Outline: as §1
# [16] = test system: NCI-H520
# Outline: as §1
# [17] = test system: NCI-H650
# Outline: as §1
# [18] = test system: LCLC-97TM1
# Outline: as §1
# [19] = test system: NCI-H661
# Outline: as §1
# [20] = test system: EPLC-272H
# Outline: as §1
# [21] = test system: NCI-H1666
# Outline: as §1
# [22] = test system: PC-14
# Outline: as §1
smiles,measurement,setting,value
CC(=O)O[C@@]12CO[C@@H]1C[C@H](O)[C@@]1(C)C(=O)[C@H](O)C3=C(C)[C@@H](OC(=O)[C@H](O)[C@@H](NC(=O)OC(C)(C)C)c4ccccc4)C[C@@](O)([C@@H](OC(=O)c4ccccc4)[C@H]21)C3(C)C [Docetaxel] + Nc1ncn([C@H]2C[C@H](O)[C@@H](CO)O2)c(=O)n1 [Decitabine] (partner 2 µM),relative viability,[1]; first compound 0.0002 µM,0.734
same,relative viability,[1]; first compound 0.000632 µM,0.566
same,relative viability,[1]; first compound 0.002 µM,0.335
same,relative viability,[1]; first compound 0.006325 µM,0.31
same,relative viability,[1]; first compound 0.02 µM,0.27
same,relative viability,[2]; first compound 0.0002 µM,0.782
same,relative viability,[2]; first compound 0.000632 µM,0.778
same,relative viability,[2]; first compound 0.002 µM,0.701
same,relative viability,[2]; first compound 0.006325 µM,0.47
same,relative viability,[2]; first compound 0.02 µM,0.331
same,relative viability,[3]; first compound 0.0002 µM,0.245
same,relative viability,[3]; first compound 0.000632 µM,0.25
same,relative viability,[3]; first compound 0.002 µM,0.231
same,relative viability,[3]; first compound 0.006325 µM,0.184
same,relative viability,[3]; first compound 0.02 µM,0.124
same,relative viability,[4]; first compound 0.0002 µM,0.627
same,relative viability,[4]; first compound 0.000632 µM,0.654
same,relative viability,[4]; first compound 0.002 µM,0.458
same,relative viability,[4]; first compound 0.006325 µM,0.511
same,relative viability,[4]; first compound 0.02 µM,0.353
same,relative viability,[5]; first compound 0.000632 µM,0.468
same,relative viability,[5]; first compound 0.002 µM,0.171
same,relative viability,[5]; first compound 0.006325 µM,0.153
same,relative viability,[5]; first compound 0.02 µM,0.109
same,relative viability,[6]; first compound 0.0002 µM,0.622
same,relative viability,[6]; first compound 0.000632 µM,0.548
same,relative viability,[6]; first compound 0.002 µM,0.463
same,relative viability,[6]; first compound 0.006325 µM,0.387
same,relative viability,[7]; first compound 0.0002 µM,0.769
same,relative viability,[7]; first compound 0.000632 µM,0.714
same,relative viability,[7]; first compound 0.002 µM,0.465
same,relative viability,[7]; first compound 0.006325 µM,0.323
same,relative viability,[7]; first compound 0.02 µM,0.272
same,relative viability,[8]; first compound 0.0002 µM,0.666
same,relative viability,[8]; first compound 0.000632 µM,0.533
same,relative viability,[8]; first compound 0.002 µM,0.442
same,relative viability,[8]; first compound 0.006325 µM,0.394
same,relative viability,[8]; first compound 0.02 µM,0.364
same,relative viability,[9]; first compound 0.0002 µM,0.286
same,relative viability,[9]; first compound 0.000632 µM,0.227
same,relative viability,[9]; first compound 0.002 µM,0.172
same,relative viability,[9]; first compound 0.006325 µM,0.0964
same,relative viability,[9]; first compound 0.02 µM,0.098
same,relative viability,[10]; first compound 0.0002 µM,0.2
same,relative viability,[10]; first compound 0.000632 µM,0.343
same,relative viability,[10]; first compound 0.002 µM,0.279
same,relative viability,[10]; first compound 0.006325 µM,0.251
same,relative viability,[10]; first compound 0.02 µM,0.236
same,relative viability,[11]; first compound 0.0002 µM,0.33
same,relative viability,[11]; first compound 0.000632 µM,0.303
same,relative viability,[11]; first compound 0.002 µM,0.253
same,relative viability,[11]; first compound 0.006325 µM,0.256
same,relative viability,[11]; first compound 0.02 µM,0.157
same,relative viability,[12]; first compound 0.0002 µM,0.716
same,relative viability,[12]; first compound 0.000632 µM,0.542
same,relative viability,[12]; first compound 0.002 µM,0.232
same,relative viability,[12]; first compound 0.02 µM,0.146
same,relative viability,[13]; first compound 0.0002 µM,0.724
same,relative viability,[13]; first compound 0.000632 µM,0.75
same,relative viability,[13]; first compound 0.002 µM,0.663
same,relative viability,[13]; first compound 0.006325 µM,0.498
same,relative viability,[13]; first compound 0.02 µM,0.341
same,relative viability,[14]; first compound 0.0002 µM,0.637
same,relative viability,[14]; first compound 0.000632 µM,0.633
same,relative viability,[14]; first compound 0.002 µM,0.644
same,relative viability,[14]; first compound 0.006325 µM,0.51
same,relative viability,[14]; first compound 0.02 µM,0.473
same,relative viability,[15]; first compound 0.0002 µM,0.461
same,relative viability,[15]; first compound 0.000632 µM,0.548
same,relative viability,[15]; first compound 0.002 µM,0.381
same,relative viability,[15]; first compound 0.006325 µM,0.276
same,relative viability,[15]; first compound 0.02 µM,0.21
same,relative viability,[16]; first compound 0.0002 µM,0.454
same,relative viability,[16]; first compound 0.000632 µM,0.465
same,relative viability,[16]; first compound 0.002 µM,0.333
same,relative viability,[16]; first compound 0.006325 µM,0.249
same,relative viability,[17]; first compound 0.0002 µM,0.299
same,relative viability,[17]; first compound 0.000632 µM,0.307
same,relative viability,[17]; first compound 0.002 µM,0.274
same,relative viability,[17]; first compound 0.006325 µM,0.278
same,relative viability,[17]; first compound 0.02 µM,0.127
same,relative viability,[18]; first compound 0.0002 µM,0.208
same,relative viability,[18]; first compound 0.000632 µM,0.189
same,relative viability,[18]; first compound 0.002 µM,0.133
same,relative viability,[18]; first compound 0.006325 µM,0.112
same,relative viability,[18]; first compound 0.02 µM,0.0836
same,relative viability,[19]; first compound 0.0002 µM,0.519
same,relative viability,[19]; first compound 0.000632 µM,0.575
same,relative viability,[19]; first compound 0.002 µM,0.606
same,relative viability,[19]; first compound 0.006325 µM,0.358
same,relative viability,[19]; first compound 0.02 µM,0.343
same,relative viability,[20]; first compound 0.0002 µM,0.364
same,relative viability,[20]; first compound 0.000632 µM,0.308
same,relative viability,[20]; first compound 0.002 µM,0.179
same,relative viability,[20]; first compound 0.006325 µM,0.127
same,relative viability,[20]; first compound 0.02 µM,0.0741
same,relative viability,[21]; first compound 0.0002 µM,0.594
same,relative viability,[21]; first compound 0.000632 µM,0.64
same,relative viability,[21]; first compound 0.002 µM,0.504
same,relative viability,[21]; first compound 0.006325 µM,0.477
same,relative viability,[21]; first compound 0.02 µM,0.425
same,relative viability,[22]; first compound 0.0002 µM,0.175
same,relative viability,[22]; first compound 0.000632 µM,0.107
same,relative viability,[22]; first compound 0.002 µM,0.0764
same,relative viability,[22]; first compound 0.006325 µM,0.0588
same,relative viability,[22]; first compound 0.02 µM,0.0313

# — the supplement of paper PMC10307832
